In patent EP4722228A1, “NEW COMPOUND TARGETING MUSK AND USE THEREOF” (The University of Tokyo, priority 2023, dated 2024) one finds Kd, koff and kon data, which are given here for 6 compounds.

A word on the Kd: it is the equilibrium constant for the complex coming apart. Broadly, the koff is the first-order rate constant of dissociation. Low values mean a long-lived complex, high ones a short-lived complex. In general, kon refers to a measure of how fast the partners come together. A low value points to slow association.

For the assay, the target named is T1, human MuSK (Homo sapiens, UniProt O15146).
T1 construct: DNA corresponding to the extracellular portion (amino acids 1-493) was amplified by a PCR method; made in house; host or cells: Expi293F cells
T1 sequence (O15146 24-493): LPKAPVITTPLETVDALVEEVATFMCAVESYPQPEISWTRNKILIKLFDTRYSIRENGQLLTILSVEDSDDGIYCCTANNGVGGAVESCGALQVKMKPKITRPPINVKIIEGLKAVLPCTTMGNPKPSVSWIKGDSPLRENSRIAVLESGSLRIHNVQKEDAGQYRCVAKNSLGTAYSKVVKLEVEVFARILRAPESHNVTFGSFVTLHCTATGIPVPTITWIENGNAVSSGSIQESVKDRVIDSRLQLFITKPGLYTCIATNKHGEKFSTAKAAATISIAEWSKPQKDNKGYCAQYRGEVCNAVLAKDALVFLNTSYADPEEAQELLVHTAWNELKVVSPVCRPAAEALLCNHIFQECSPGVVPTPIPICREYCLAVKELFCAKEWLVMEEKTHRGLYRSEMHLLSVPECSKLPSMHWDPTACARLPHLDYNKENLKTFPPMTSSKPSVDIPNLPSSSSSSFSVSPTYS
Kind of assay: SPR binding activity test to human MuSK (Biacore). As to the method:
The human MuSK protein (extracellular portion) was prepared as a recombinant protein as follows. Using a Flexi clone (FXC31275, Promega Corporation) encoding Human MuSK isoform 1 precursor (NCBI Reference Sequence: NP_005583.1) as a template, DNA corresponding to the extracellular portion (amino acids 1-493) was amplified by a PCR method. XhoI and EcoRI restriction enzyme recognition sequences were added to both the 5' and 3' ends of the amplified DNA sequence, and these were used for insertion into the multiple cloning site of a pCAG-Neo hIgG1-Fc plasmid (Fujifilm Wako Pure Chemical Corporation). This plasmid (pCAG-Neo hMuSK-Fc) enables expression of a chimeric protein of the secretory human MuSK extracellular portion and human IgG1 Fc (hMuSK-Fc; molecular weight of approximately 200 kDa) in animal cells. In practice, ExpiFectamine 293 reagent (Invitrogen) was used to transfect the pCAG-Neo hMuSK-Fc plasmid into Expi293F cells (Invitrogen), and shaking culture was carried out (for 6 days) in an incubator containing 8% CO2. Next, the culture supernatant was collected, centrifuged, and sterilized by filtration through a 0.22 µm filter. The obtained culture supernatant was subjected to Protein G purification, and finally, a purified hMuSK-Fc sample with 99.96% purity (AKTA-FPLC analysis) was obtained.
The strength of binding between MuSK and the cyclic peptides was evaluated by quantitatively measuring the binding kinetics (binding affinity (dissociation constant) KD) of the cyclic peptides to MuSK immobilized on a sensor chip via an Fc tag, using surface plasmon resonance (SPR).
According to the standard immobilization protocol provided by the manufacturer, Fc-tagged human/mouse/rat MuSK was immobilized on a Protein G chip or a Protein A chip (Cytiva). A running buffer for the monomer/dimer peptides contained 0.010 M phosphate, 0.14 M NaCl, 0.0027 M KCl, 0.05% (v/v) Tween 20, and 0.1% (v/v) DMSO. A running buffer for the monomer/dimer U-bodies contained 0.010 M phosphate, 0.14 M NaCl, 0.0027 M KCl, and 0.05% (v/v) Tween 20. A series of concentrations of each monomer peptide, dimer peptide, monomer U-body, and dimer U-body was injected as analytes. A 1:1 binding fitting analysis was applied using Biacore evaluation software, and ka, kd, and KD values were determined.
Fc-tagged human MuSK was prepared according to the procedure described in Example 1(1). In addition, Fc-tagged mouse MuSK was used by expressing a nucleotide sequence encoding the Fc-tagged mouse MuSK extracellular domain (SEQ ID NO: 34). In addition, Fc-tagged rat MuSK was used as a chimeric protein of rat MuSK and an Fc protein, namely, Recombinant Rat MuSK Fc Chimera Protein (catalog number: 9847-MK-050, R&D Systems).
The affinity of the U-bodies and their complexes obtained as described above for MuSK of human, rat, and mouse was evaluated (binding activity test). The test was carried out according to the procedure described in Example 1(3). However, for the complexes of U-bodies, surface plasmon resonance (SPR) analysis was carried out using a Biacore 8K (Cytiva).
For orientation: In SPR one partner is held on a chip, and binding of the other changes the refractive index at the surface.

Setting [1] is: 25°C, Fc-tagged human MuSK immobilized, monomer peptides, read-out: Binding activity (KD).

Structures are written as SMILES. Like-named read-outs stand apart in the source and are kept apart here. Numbered stars: 1 amine (or outer) side, 2 acyl side, 3 side chain; on linkers, the order of the positions; unused ones are H or OH. Bridge positions count the residues as written; N and C are the ends. Square brackets hold non-standard residues; d marks the D form. Peptide text beside a SMILES is read from it. I, II: the chains in the order shown. * marks the point of attachment. X1 = O=C(CCN1C(=O)CC([*:1])C1=O)NCCOCCOCCOCCOCCOCCOCCOCCOCCOCCOCCOCCNC(=O)CCN1C(=O)CC([*:2])C1=O; X2 = O=C(CCN1C(=O)CC([*:1])C1=O)NCCCOCCOCCOCCCNC(=O)CCN1C(=O)CC([*:2])C1=O; ClAc = O=C(CCl)*

In the case of `CC(=O)N[C@H](Cc1ccc(O)cc1)C(=O)N[C@@H](CC(C)C)C(=O)N1CCC[C@H]1C(=O)N[C@@H](CCC(=O)O)C(=O)N[C@@H](Cc1ccccc1)C(=O)N[C@@H](CO)C(=O)N[C@@H](Cc1c[nH]c2ccccc12)C(=O)N1CCC[C@H]1C(=O)N[C@@H](CCC(=O)O)C(=O)N[C@@H](CO)C(=O)N[C@@H](Cc1ccccc1)C(=O)N[C@H](C(=O)N[C@@H](CC(C)C)C(=O)N[C@@H](Cc1ccccc1)C(=O)N[C@@H](CC(C)C)C(=O)N[C@@H](CCCNC(=N)N)C(=O)N[C@@H](CCC(N)=O)C(=O)N[C@@H](CCCNC(=N)N)C(=O)N[C@@H](CCC(N)=O)C(=O)N[C@@H](CCCNC(=N)N)C(=O)N[C@@H](CCC(N)=O)C(=O)N[C@@H](CC(C)C)C(=O)NCC(=O)N[C@@H](CCCNC(=N)N)C(=O)NCC(=O)N[C@@H](C)C(=O)N[C@@H](CCC(=O)O)C(N)=O)C(C)C` [MuSK1Ac] (Ac-[dY]LPEFSWPESFVLFLRQRQRQLGRGAE-NH2), the dissociation constant Kd under setting [1] stood at 1.6 nM.

Take `CC(C)C[C@H](NC(=O)[C@H](CCC(N)=O)NC(=O)[C@H](CCCNC(=N)N)NC(=O)[C@H](CCC(N)=O)NC(=O)[C@H](CCCNC(=N)N)NC(=O)[C@H](CCC(N)=O)NC(=O)[C@H](CCCNC(=N)N)NC(=O)[C@H](CC(C)C)NC(=O)[C@H](Cc1ccccc1)NC(=O)[C@H](CC(C)C)NC(=O)[C@@H](NC(=O)[C@H](Cc1ccccc1)NC(=O)[C@H](CO)NC(=O)[C@H](CCC(=O)O)NC(=O)[C@@H]1CCCN1C(=O)[C@H](Cc1c[nH]c2ccccc12)NC(=O)[C@H](CO)NC(=O)[C@H](Cc1ccccc1)NC(=O)[C@H](CCC(=O)O)NC(=O)[C@@H]1CCCN1C(=O)[C@H](CC(C)C)NC(=O)[C@@H](Cc1ccc(O)cc1)NC(=O)CCl)C(C)C)C(=O)NCC(=O)N[C@@H](CCCNC(=N)N)C(=O)NCC(=O)N[C@@H](C)C(=O)N[C@@H](CCC(=O)O)C(N)=O` [MuSK1] (ClAc-[dY]LPEFSWPESFVLFLRQRQRQLGRGAE-NH2): under setting [1], the Kd is 2.2 nM.

Consider `CC(C)C[C@@H]1NC(=O)[C@H](CC(C)C)NC(=O)[C@H](CO)NC(=O)[C@H](C(C)C)NC(=O)[C@H](C(C)C)NC(=O)[C@H](CC(N)=O)NC(=O)[C@H]([C@@H](C)O)NC(=O)[C@@H]2CCCN2C(=O)[C@H](Cc2ccccc2)NC(=O)[C@@H](Cc2ccc(O)cc2)NC(=O)CSC[C@@H](C(=O)N[C@@H](CSC2CC(=O)N(CCC(=O)NCCCOCCOCCOCCCNC(=O)CCN3C(=O)CC(SC[C@H](NC(=O)[C@@H]4CSCC(=O)N[C@H](Cc5ccc(O)cc5)C(=O)N[C@@H](Cc5ccccc5)C(=O)N5CCC[C@H]5C(=O)N[C@@H]([C@@H](C)O)C(=O)N[C@@H](CC(N)=O)C(=O)N[C@@H](C(C)C)C(=O)N[C@@H](C(C)C)C(=O)N[C@@H](CO)C(=O)N[C@@H](CC(C)C)C(=O)N[C@@H](CC(C)C)C(=O)N[C@@H](CCCCN)C(=O)N[C@@H](CO)C(=O)N4)C(N)=O)C3=O)C2=O)C(N)=O)NC(=O)[C@H](CO)NC(=O)[C@H](CCCCN)NC1=O` (some centres unmarked) [MuSK4 PEG3 dimer] (I: {CH2CO}-[dY]FPTNVVSLLKSCC-NH2 / II: {CH2CO}-[dY]FPTNVVSLLKSCC-NH2; linker I:14-II:14 via X2; thioether I:N-I:13, II:N-II:13), for which, where the note is “human MuSK, peptide homodimers”, the off-rate (koff) was 0.0044 s⁻¹ and the association rate constant (kon) stood at 650000 M⁻¹ s⁻¹.

Under “human MuSK, peptide homodimers”, `CC(C)C[C@@H]1NC(=O)[C@H](CC(C)C)NC(=O)[C@H](CO)NC(=O)[C@H](C(C)C)NC(=O)[C@H](C(C)C)NC(=O)[C@H](CC(N)=O)NC(=O)[C@H]([C@@H](C)O)NC(=O)[C@@H]2CCCN2C(=O)[C@H](Cc2ccccc2)NC(=O)[C@@H](Cc2ccc(O)cc2)NC(=O)CSC[C@@H](C(=O)N[C@@H](CSC2CC(=O)N(CCC(=O)NCCOCCOCCOCCOCCOCCOCCOCCOCCOCCOCCOCCNC(=O)CCN3C(=O)CC(SC[C@H](NC(=O)[C@@H]4CSCC(=O)N[C@H](Cc5ccc(O)cc5)C(=O)N[C@@H](Cc5ccccc5)C(=O)N5CCC[C@H]5C(=O)N[C@@H]([C@@H](C)O)C(=O)N[C@@H](CC(N)=O)C(=O)N[C@@H](C(C)C)C(=O)N[C@@H](C(C)C)C(=O)N[C@@H](CO)C(=O)N[C@@H](CC(C)C)C(=O)N[C@@H](CC(C)C)C(=O)N[C@@H](CCCCN)C(=O)N[C@@H](CO)C(=O)N4)C(N)=O)C3=O)C2=O)C(N)=O)NC(=O)[C@H](CO)NC(=O)[C@H](CCCCN)NC1=O` (some centres unmarked) [MuSK4 PEG11 dimer] (I: {CH2CO}-[dY]FPTNVVSLLKSCC-NH2 / II: {CH2CO}-[dY]FPTNVVSLLKSCC-NH2; linker I:14-II:14 via X1; thioether I:N-I:13, II:N-II:13) showed a koff of 0.0056 s⁻¹ and an on-rate constant (kon) of 810000 M⁻¹ s⁻¹. Moreover, the Kd (human MuSK, peptide homodimers, read-out: Kd) came to 6.9 nM.

Under “human MuSK, peptide homodimers”, `CC(C)C[C@@H]1NC(=O)[C@H](CO)NC(=O)[C@H](C)NC(=O)[C@H](C(C)C)NC(=O)[C@H](C(C)C)NC(=O)[C@H](CC(N)=O)NC(=O)[C@H]([C@@H](C)O)NC(=O)[C@H](Cc2c[nH]cn2)NC(=O)[C@H](Cc2ccc(O)cc2)NC(=O)[C@H](CO)NC(=O)[C@@H]2CCCN2C(=O)[C@@H](Cc2ccc(O)cc2)NC(=O)CSC[C@@H](C(=O)N[C@@H](CSC2CC(=O)N(CCC(=O)NCCCOCCOCCOCCCNC(=O)CCN3C(=O)CC(SC[C@H](NC(=O)[C@@H]4CSCC(=O)N[C@H](Cc5ccc(O)cc5)C(=O)N5CCC[C@H]5C(=O)N[C@@H](CO)C(=O)N[C@@H](Cc5ccc(O)cc5)C(=O)N[C@@H](Cc5c[nH]cn5)C(=O)N[C@@H]([C@@H](C)O)C(=O)N[C@@H](CC(N)=O)C(=O)N[C@@H](C(C)C)C(=O)N[C@@H](C(C)C)C(=O)N[C@@H](C)C(=O)N[C@@H](CO)C(=O)N[C@@H](CC(C)C)C(=O)N[C@@H](CCCCN)C(=O)N[C@@H](CCCNC(=N)N)C(=O)N4)C(N)=O)C3=O)C2=O)C(N)=O)NC(=O)[C@H](CCCNC(=N)N)NC(=O)[C@H](CCCCN)NC1=O` (some centres unmarked) [MuSK7 PEG3 dimer] (I: {CH2CO}-[dY]PSYHTNVVASLKRCC-NH2 / II: {CH2CO}-[dY]PSYHTNVVASLKRCC-NH2; linker I:16-II:16 via X2; thioether I:N-I:15, II:N-II:15) displayed a koff of 0.00034 s⁻¹ and a kon of 540000 M⁻¹ s⁻¹.

For the setting “human MuSK, peptide homodimers”, `CC[C@H](C)[C@@H]1NC(=O)[C@H](CC(N)=O)NC(=O)[C@H](C(C)C)NC(=O)[C@H](Cc2ccc(O)cc2)NC(=O)CNC(=O)[C@@H]2CCCN2C(=O)[C@H](CCC(N)=O)NC(=O)[C@H](CC(C)C)NC(=O)[C@H](Cc2ccc(O)cc2)NC(=O)[C@H](Cc2c[nH]c3ccccc23)NC(=O)[C@@H](Cc2ccc(O)cc2)NC(=O)CSC[C@@H](C(=O)N[C@@H](CSC2CC(=O)N(CCC(=O)NCCCOCCOCCOCCCNC(=O)CCN3C(=O)CC(SC[C@H](NC(=O)[C@@H]4CSCC(=O)N[C@H](Cc5ccc(O)cc5)C(=O)N[C@@H](Cc5c[nH]c6ccccc56)C(=O)N[C@@H](Cc5ccc(O)cc5)C(=O)N[C@@H](CC(C)C)C(=O)N[C@@H](CCC(N)=O)C(=O)N5CCC[C@H]5C(=O)NCC(=O)N[C@@H](Cc5ccc(O)cc5)C(=O)N[C@@H](C(C)C)C(=O)N[C@@H](CC(N)=O)C(=O)N[C@@H]([C@@H](C)CC)C(=O)N[C@@H](C(C)C)C(=O)N[C@@H]([C@@H](C)O)C(=O)N[C@@H](CO)C(=O)N[C@@H](Cc5ccc(O)cc5)C(=O)N[C@@H](Cc5c[nH]cn5)C(=O)N4)C(N)=O)C3=O)C2=O)C(N)=O)NC(=O)[C@H](Cc2c[nH]cn2)NC(=O)[C@H](Cc2ccc(O)cc2)NC(=O)[C@H](CO)NC(=O)[C@H]([C@@H](C)O)NC(=O)[C@H](C(C)C)NC1=O` (some centres unmarked) [MuSK9 PEG3 dimer] (I: {CH2CO}-[dY]WYLQPGYVNIVTSYHCC-NH2 / II: {CH2CO}-[dY]WYLQPGYVNIVTSYHCC-NH2; linker I:18-II:18 via X2; thioether I:N-I:17, II:N-II:17) had a dissociation rate constant (koff) of 0.0017 s⁻¹ and an association rate constant (kon) of 780000 M⁻¹ s⁻¹.
